Active and inactive are the calls of the source. The rule behind the calls is not given here.
System: rodent carcinogenicity bioassays, tumor incidence
Experiment: CCRIS carcinogenicity studies
Conditions: Dose: 0, Dose: 0
Excerpt: The CCRIS database contains chemical records with carcinogenicity, mutagenicity, tumor promotion, and tumor inhibition test results. It was developed by the National Cancer Institute (NCI). Data are derived from studies cited in primary journals, current awareness tools, NCI reports, and other sources. Test results have been reviewed by experts in carcinogenesis and mutagenesis.
CCRIS provides historical information from the years 1985 - 2011. It is no longer updated.
This is an archive assay for CCRIS carcinogenicity studies.

Row | Structure (SMILES) | carcinogen call (Species: MOUSE, Strain/Sex: B6C3F1/FEMALE, Route: DERMAL, 40, 80, 160 MG/KG BW IN ETHANOL 5 D/WK FOR 103 WK (STUDY DURATION: 103 WK), 40, 80, 160 MG/KG BW IN ETHANOL 5 D/WK FOR 103 WK (STUDY DURATION: 103 WK), Tumor Site: Type of Lesion: LIVER: HEPATOCELLULAR ADENOMA, HEPATOCELLULAR CARCINOMA, OR HEPATOBLASTOMA) | carcinogen call (Species: MOUSE, Strain/Sex: B6C3F1/MALE, Route: DERMAL, 40, 80, 160 MG/KG BW IN ETHANOL 5 D/WK FOR 103 WK (STUDY DURATION: 103 WK), 40, 80, 160 MG/KG BW IN ETHANOL 5 D/WK FOR 103 WK (STUDY DURATION: 103 WK), Tumor Site: Type of Lesion: LIVER: HEPATOCELLULAR ADENOMA, HEPATOCELLULAR CARCINOMA, OR HEPATOBLASTOMA) | carcinogen call (Species: RAT, Strain/Sex: F344/N/FEMALE, Route: DERMAL, 8, 16, 32 MG/KG BW IN ETHANOL 5 D/WK FOR 103 WK (STUDY DURATION: 103 WK), 8, 16, 32 MG/KG BW IN ETHANOL 5 D/WK FOR 103 WK (STUDY DURATION: 103 WK)) | carcinogen call (Species: RAT, Strain/Sex: F344/N/MALE, Route: DERMAL, 16, 32, 64 MG/KG BW IN ETHANOL 5 D/WK FOR 103 WK (STUDY DURATION: 103 WK), 16, 32, 64 MG/KG BW IN ETHANOL 5 D/WK FOR 103 WK (STUDY DURATION: 103 WK)) | carcinogen call (Species: MOUSE, Strain/Sex: B6C3F1/FEMALE, Route: GAVAGE, 195, 390 MG/KG/D, TWA, 195, 390 MG/KG/D, TWA, Tumor Site: Type of Lesion: LIVER: HEPATOCELLULAR CARCINOMA) | carcinogen call (Species: MOUSE, Strain/Sex: B6C3F1/MALE, Route: GAVAGE, 195, 390 MG/KG/D, TWA, 195, 390 MG/KG/D, TWA, Tumor Site: Type of Lesion: LIVER: HEPATOCELLULAR CARCINOMA) | carcinogen call (Species: RAT, Strain/Sex: OSBORNE-MENDEL/FEMALE, Route: GAVAGE, 46, 92 MG/KG/D, TWA, 46, 92 MG/KG/D, TWA) | carcinogen call (Species: RAT, Strain/Sex: OSBORNE-MENDEL/MALE, Route: GAVAGE, 46, 92 MG/KG/D, TWA, 46, 92 MG/KG/D, TWA)
1 | OCCNCCO | active; positive | active; positive | inactive; negative | inactive; negative | – | – | – | –
2 | ClCC(Cl)Cl | – | – | – | – | active; positive | active; positive | inactive; negative | inactive; negative

From PubChem BioAssay AID1259411 (Chemical Carcinogenesis Research Information System (CCRIS), 2018)
